# Laboratory results from patent US12329738B2, “Urolithin A and a composition containing same for external use in inflammations of various etiologies” (WARSZAWSKI UNIWERSYTET MEDYCZNY, priority 2018, dated 2025).
# Columns and labels:
# [1] = following ingestion of food products rich in ellagitannins; cited from earlier work
# [2] = Thermal, acid and UV stability of urolithin A (UPLC-DAD-MS); format: physicochemical; settings: 80 μM in deionized water or 1M HCl, 24 hours at 37° C. or 12 hours at 80° C.; UVA 365 nm 12 hours
# Method: Urolithin A at 80 μM was suspended in deionized water or 1M HCl and incubated for 24 hours at 37° C. or for 12 hours at 80° C. The urolithin A solution was also irradiated for 12 hours with a UV lamp emitting UVA radiation with the maximum at 365 nm. The concentration of urolithin A after incubation was determined using the UPLC-DAD-MS method according to Piwowarski et al. 2016.
# [3] = test system: Wistar rats (DNCB-induced atopic dermatitis); experiment: Histologic assessment of ear skin in atopic dermatitis rat model; format: in vivo; settings: lesions treated with the composition of urolithin A; day 32; FIG. 8
# Method: Wistar rats aged 5-6 weeks (at the start of the experiment) kept under standard conditions with free access to feed and water were used for the tests. The animals were divided into 5 groups, 8 individuals in each group. To prepare 2,4-dinitrochlorobenzene (DNCB) composition inducing inflammation, DNCB was dissolved in 70% ethanol to a final concentration of 1.5% (w/v). Therapeutic composition was an ointment based on white petrolatum with 0.2% or 1.0% urolithin A added. The control ointment was white petrolatum without addition of urolithin A. The induction of chronic atopic dermatitis involved local 9-fold infiltration with 60 μl 1.5% 2,4-dinitrochlorobenzene (DNCB) on each (external and internal) surface of the right ear over 3 weeks (3 times a week). Negative control was the right ear of rats without induction inflammation. Treatment of atopic dermatitis with 0.2% or 1.0% urolithin composition and white petrolatum (control) or 1.0% hydrocortisone composition (positive control) was started eight days after sensitization—one day before the fourth application of DNCB. Ointments with appropriate for given group drug added were applied in a total volume of about 20 μl to each ear surface one day before and 6 hours after each DNCB application (for a period of 3 weeks). […]
# [4] = animal model; oral and intravenous administration; cited from earlier work
smiles,measurement,setting,value
O=c1oc2cc(O)ccc2c2ccc(O)cc12 [urolithin A],"Concentration in feces, tissues, blood and urine",[1],≤ 100 µM
same,Stability (degradation / change in chemical structure),[2],stable
same,Histology of skin lesions,[3],"Mild epidermal hyperplasia, infiltration of mononuclear cells (mast cells) and neutrophils. A slight infiltration of inflammatory cells around the blood vessels"
same,Toxicity,[4],no toxicity
